Common to all, as to assay type: binding
Conditions in all cases: 15 minutes reaction time point

Test [1] deals with T1, GTP-loaded KRAS4b (amino acids 1-169) G12C/C118S protein (Homo sapiens, UniProt P01116, C118S/G12C).
T1 construct: KRAS4b (amino acids 1-169) G12C/C118S protein; made in house
The test can be described thus: Covalent cysteine 12 modification by MALDI-TOF MS, GTP-loaded KRAS G12C. The essentials:
(§1)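 1 μM protein + cpd (1:2.5), HEPES 20 mM/NaCl 150 mM/MgCl2 1 mM pH 7.3, RT, dark, 15 min. Linear MALDI-TOF, sinapinic acid matrix. % mod = modified/(modified + unmodified) peak height.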

For test [2], the target named is T2, GDP-loaded KRAS4b (amino acids 1-169) G12C/C118S protein (Homo sapiens, UniProt P01116, C118S/G12C).
T2 construct: KRAS4b (amino acids 1-169) G12C/C118S protein; made in house
The test can be described thus: Covalent cysteine 12 modification by MALDI-TOF MS, GDP-loaded KRAS G12C. The gist of the method:
as §1

Test [3] has as its target T3, GppNHp-loaded KRAS4b (amino acids 1-169) G12C/C118S protein (Homo sapiens, UniProt P01116, C118S/G12C).
T3 construct: KRAS4b (amino acids 1-169) G12C/C118S protein; made in house
The test can be described thus: Covalent cysteine 12 modification by MALDI-TOF MS, GppNHp-loaded KRAS G12C. The gist of the method:
as §1

The structures appear in SMILES notation.

For the compound `C=CC(=O)N1CC[C@@H](N(C)c2nc(OC[C@@H]3CC4(CC4)CN3CC)nc3c(F)c(-c4ccc(F)c5sc(N)c(C#N)c45)c(Cl)cc23)[C@H]1C` [Compound 97], in test [1], the “GTP-KRAS G12C percent of modification” value is recorded as “A (percent of modification ≥70%)”. Besides, in test [2], the “GDP-KRAS G12C percent of modification” value is recorded as “A (percent of modification ≥70%)”. Further, in test [3], the “GppNHp-KRAS G12C percent of modification” value is “A (percent of modification ≥70%)”.

Consider `C=CC(=O)N1CC[C@@H](N(C)c2nc(OC[C@@H]3C[C@@H](F)CN3CC)nc3c(F)c(-c4ccc(F)c5sc(N)c(C#N)c45)c(Cl)cc23)[C@H]1C` [Compound 98], for which, in test [1], the “GTP-KRAS G12C percent of modification” value is “D (percent of modification <10%)”. In test [2], the “GDP-KRAS G12C percent of modification” value is recorded as “D (percent of modification <10%)”. For the same compound, the “GppNHp-KRAS G12C percent of modification” value in test [3] is on record as “D (percent of modification <10%)”.

As to `C=CC(=O)N1CC[C@@H](N(C)c2nc(OC[C@@H]3C[C@@H](OC)CN3CC)nc3c(F)c(-c4ccc(F)c5sc(N)c(C#N)c45)c(Cl)cc23)[C@H]1C` [Compound 99], the “GTP-KRAS G12C percent of modification” value in test [1] was “A (percent of modification ≥70%)”. Also, in test [2], the “GDP-KRAS G12C percent of modification” value was “A (percent of modification ≥70%)”. For the same compound, in test [3], the “GppNHp-KRAS G12C percent of modification” value is “A (percent of modification ≥70%)”.

For `C=CC(=O)N1CC[C@@H](N(C)c2nc(OC[C@@H]3C[C@@H](OC)CN3CC)nc3c(F)c(-c4ccc(F)c5sc(N)c(C#N)c45)c(Cl)cc23)[C@@H]1C` [Compound 100], in test [1], the “GTP-KRAS G12C percent of modification” value is “C (10%≤percent of modification <50%)”. The “GDP-KRAS G12C percent of modification” value in test [2] is recorded as “A (percent of modification ≥70%)”. The “GppNHp-KRAS G12C percent of modification” value in test [3] was “A (percent of modification ≥70%)”.

Source of the values: patent publication US20260232666A1, “COMPOSITIONS AND METHODS FOR INHIBITION OF RAS” (TheRas, Inc., priority 2023, published 2026).
